This is an account of results in patent publication US20040110928A1, “Peptide conjugates for drug delivery” (priority 2000, published 2004).

For this test the following is noted: biotin tag reacted with fluorescently-labelled avidin. On the procedure: In a separate experiment, two synthetic peptides were produced, and covalently attached to a biotin molecule. The sequences were:
The synthetic peptides were assessed for translocation by reacting the biotin tag with fluorescently-labelled avidin.

As for “Biotin-spacer-TPKKAKKPAAAAGASSAKSP-amide [SEQ ID NO. 11]”, the Translocation result is given as “Translocation was observed”.

For the substance “Biotin-spacer-TPKKASSPAAAAGAKKAKSP-amide [SEQ ID NO. 10]”, the Translocation entry is “no translocation was observed”.
